Source: US9849130B2 (KamTek, Inc., priority 2014, dated 2017)
In brackets after ≈: the same amount, converted by molar mass. Like-named read-outs stand apart in the source and are kept apart here.

What was measured:
[1] = tested on: C. perfringens MH310; test: microbe, parasite or virus in culture; type: cell-based; conditions: Clostridium perfringens, MH310, C. perfringens MH310
[2] = tested on: Clostridium difficile (CD) strains; test: microbe, parasite or virus in culture; type: cell-based; conditions: Clostridioides difficile; for MIC: BAA1805, CD strain BAA1805 (hyper-virulent strain BI/NAP1/027)
[3] = tested on: Lactobacillus strains; test: MIC against Lactobacillus strains; type: cell-based, Lactobacillus spp.; conditions: for MIC: broth microdilution, BHI with 0.02% Tween 80, pH 6.0, read-out: MIC
[4] = tested on: C. difficile VPI10463; conditions: Clostridioides difficile, −fecal extract, C. difficile VPI10463
[5] = tested on: Escherichia coli strains; test: MIC by microdilution in Mueller-Hinton broth against Escherichia coli strains; type: cell-based; conditions: Escherichia coli, Mueller-Hinton broth, read-out: MIC
[6] = tested on: Bifidobacterium strains; test: MIC by microdilution in BHI broth against Bifidobacterium strains; type: cell-based, Bifidobacterium spp.; conditions: BHI broth, read-out: MIC
[7] = tested on: Enterococcus faecalis; test: MIC by microdilution in Mueller-Hinton broth against Enterococcus faecalis strains; type: cell-based; conditions: Enterococcus faecalis
[8] = tested on: C. difficile; test: Minimum bactericidal concentration (MBC) against C. difficile; type: cell-based, Clostridium difficile; conditions: Clostridioides difficile, CD strain VPI 10463; BHI; Table 19 formulations; read-out: MBC
[9] = tested on: Fusobacterium; test: MIC by microdilution in Brucella broth against Fusobacterium; type: cell-based, Fusobacterium spp.; conditions: read-out: MIC
[10] = tested on: Enterococci faecium; test: MIC by microdilution in Mueller-Hinton broth against Enterococci faecium strains; type: cell-based, Enterococcus faecium; conditions: Enterococcus faecium, Mueller-Hinton broth, read-out: MIC
[11] = tested on: Staphylococcus aureus strains; test: MIC by microdilution in Mueller-Hinton broth against Staphylococcus aureus strains; type: cell-based; conditions: Staphylococcus aureus
[12] = tested on: Lachnospiraceae and related bacterial strains; test: MIC against Lachnospiraceae and related bacterial strains; type: cell-based, Lachnospiraceae spp.; conditions: for MIC: broth microdilution, brucella broth, read-out: MIC
[13] = tested on: CD strains; test: In vitro activity of CFM + additional antimicrobial agent against CD (MIC alone/combination, FIC, ΣFIC); type: cell-based, Clostridium difficile; conditions: CFM + MET; for MIC: Clostridioides difficile, read-out: MIC alone
[14] = Test 14, CD strain BAA1805 (BI/NAP1/027)

`Cc1ncc([N+](=O)[O-])n1CCO` [MET, metronidazole] showed an MIC ([1]; BB) of 2 µg/mL (≈ 11.7 µM), an MIC ([1]; BHI) of 1 µg/mL (≈ 5.84 µM) and an MIC ([2]; BB) of 8 µg/mL (≈ 46.7 µM). For the same molecule, the MIC ([2]; BHI) was 1 µg/mL (≈ 5.84 µM), the MIC50 ([2]; n = 37, read-out: MIC50) was 1 µg/mL (≈ 5.84 µM) and the MIC90 ([2]; n = 37, read-out: MIC90) was 4 µg/mL (≈ 23.4 µM). The MIC ([3]; Lactobacillus, pH 6, Lactobacillus jhonsonii HM-643) was over 32 µg/mL, the MIC ([3]; Lactobacillus, pH 6, Lactobacillus sp. HM-228) was over 32 µg/mL and the MIC ([3]; Lactobacillus, pH 6, Lactobacillus sp. HM-478) was over 32 µg/mL. The MIC ([3]; pH 6, Lactobacillus crispatus HM-637) was over 32 µg/mL, the MIC ([3]; pH 6, Lactobacillus gasseri HM-104) was over 32 µg/mL and the MIC ([3]; pH 6, Lactobacillus iners HM-126) was over 32 µg/mL. The MIC ([3]; pH 6, Lactobacillus jensenii HM-105) was over 32 µg/mL, the MIC ([3]; pH 6, Lactobacillus reuteri HM-102) was over 32 µg/mL and the MIC ([3]; pH 6, Lactobacillus rhamnosus HM-106) was over 32 µg/mL. The MIC ([3]; pH 6, Lactobacillus vaginalis HM-405) was over 32 µg/mL, the “in vitro activity against Lactobacillus spp. (in words)” value ([3]; ten strains tested) was “essentially inactive” and the MIC ([4]; VPI10463, Expt. 1) was 0.062 µg/mL (≈ 0.362 µM). The MIC ([4]; VPI10463, Expt. 2) was 0.062 µg/mL (≈ 0.362 µM), the MIC ([5]; Escherichia coli strain NR 6) was over 32 µg/mL and the MIC ([5]; Escherichia coli strain NR 8) was over 32 µg/mL. It also gave an MIC ([5]; Escherichia coli strain NR 96) of over 32 µg/mL, an MIC ([5]; Escherichia coli strain NR 104) of over 32 µg/mL and an MIC ([5]; Escherichia coli strain NR 17626) of over 32 µg/mL. It also gave an MIC ([5]; Escherichia coli strain NR 17627) of over 32 µg/mL, an MIC ([5]; Escherichia coli strain NR 17633) of over 32 µg/mL and an MIC ([5]; Escherichia coli strain NR 17647) of over 32 µg/mL. For the same molecule, the MIC ([5]; Escherichia coli strain NR 17650) was over 32 µg/mL, the MIC ([5]; Escherichia coli strain NR 17661) was over 32 µg/mL and the MIC ([6]; Bifidobacterium adolescentis HM-633) was over 32 µg/mL. It also gave an MIC ([6]; Bifidobacterium breve HM-411) of over 32 µg/mL, an MIC ([6]; Bifidobacterium breve HM-412) of over 32 µg/mL and an MIC ([6]; Bifidobacterium breve HM-856) of over 32 µg/mL. It also gave an MIC ([6]; Bifidobacterium breve HM-1120) of 0.5 µg/mL (≈ 2.92 µM), an MIC ([6]; Bifidobacterium longum HM-845) of 2 µg/mL (≈ 11.7 µM) and an MIC ([6]; Bifidobacterium longum HM-846) of 2 µg/mL (≈ 11.7 µM). For the same molecule, the MIC ([6]; Bifidobacterium longum HM-847) was 1 µg/mL (≈ 5.84 µM), the MIC ([6]; Bifidobacterium, Bifidobacterium sp. HM-30) was over 32 µg/mL and the MIC ([6]; Bifidobacterium, Bifidobacterium sp. HM-868) was 16 µg/mL (≈ 93.5 µM). It also gave an MIC ([7]; E. faecalis NR 31884, read-out: MIC) of over 32 µg/mL, an MIC ([7]; E. faecalis NR 31885, read-out: MIC) of over 32 µg/mL and an MIC ([7]; E. faecalis NR 31886, read-out: MIC) of over 32 µg/mL. For the same molecule, the MIC ([7]; E. faecalis NR 31887, read-out: MIC) was over 32 µg/mL, the MIC ([7]; E. faecalis NR 31888, read-out: MIC) was over 32 µg/mL and the MBC [8] was 0.25 µg/mL (≈ 1.46 µM). The MIC ([9]; F. nucleatum HM-75, Brucella broth) was 0.062 µg/mL (≈ 0.362 µM), the MIC ([9]; F. nucleatum HM-993, Brucella broth) was at most 0.031 µg/mL and the MIC ([9]; F. nucleatum HM-996, Brucella broth) was 0.5 µg/mL (≈ 2.92 µM). It also gave an MIC ([9]; F. nucleatum HM-997, Brucella broth) of 0.25 µg/mL (≈ 1.46 µM), an MIC ([9]; Fusobacterium, Fusobacterium sp. HM 57, Brucella broth) of 0.5 µg/mL (≈ 2.92 µM) and an MIC ([9]; Fusobacterium, Fusobacterium spp. strains of Table 12 (all strains)) of 0.031 to 0.5 µg/mL (≈ 0.181 to 2.92 µM). For the same molecule, the MIC ([10]; E. faecium NR 31903) was over 32 µg/mL, the MIC ([10]; E. faecium NR 31909) was over 32 µg/mL and the MIC ([10]; E. faecium NR 31912) was over 32 µg/mL. For the same molecule, the MIC ([10]; E. faecium NR 31915) was over 32 µg/mL, the MIC ([10]; E. faecium NR 31916) was over 32 µg/mL and the MIC ([11]; Staphylococcus aureus strain NR 10129, read-out: MIC) was over 32 µg/mL. For the same molecule, the MIC ([11]; Staphylococcus aureus strain NR 10186, read-out: MIC) was over 32 µg/mL, the MIC ([11]; Staphylococcus aureus strain NR 10187, read-out: MIC) was over 32 µg/mL and the MIC ([11]; Staphylococcus aureus strain NR 10188, read-out: MIC) was over 32 µg/mL. It also gave an MIC ([11]; Staphylococcus aureus strain NR 10189, read-out: MIC) of over 32 µg/mL, an MIC ([11]; Staphylococcus aureus strain NR 10191, read-out: MIC) of over 32 µg/mL and an MIC ([11]; Staphylococcus aureus strain NR 10192, read-out: MIC) of over 32 µg/mL. The MIC ([11]; Staphylococcus aureus strain NR 10193, read-out: MIC) was over 32 µg/mL, the MIC ([11]; Staphylococcus aureus strain NR 10194, read-out: MIC) was over 32 µg/mL and the MIC ([11]; Staphylococcus aureus strain NR 10198, read-out: MIC) was over 32 µg/mL. It also gave an MIC ([12]; Clostridiales bacterium, Clostridiales bacterium HM-84) of 0.25 µg/mL (≈ 1.46 µM), an MIC ([12]; Clostridiales bacterium, Clostridiales bacterium HM-182) of at most 0.031 µg/mL and an MIC ([12]; Eubacterium sp. HM-178) of 1 µg/mL (≈ 5.84 µM). For the same molecule, the MIC ([12]; Lachnospiraceae sp. HM-7) was 0.25 µg/mL (≈ 1.46 µM), the MIC ([12]; Lachnospiraceae sp. HM-150) was 0.25 µg/mL (≈ 1.46 µM) and the MIC ([12]; Lachnospiraceae sp. HM-153) was 0.062 µg/mL (≈ 0.362 µM). It also gave an MIC ([12]; Lachnospiraceae sp. HM-157) of 0.25 µg/mL (≈ 1.46 µM), an MIC ([12]; Lachnospiraceae sp. HM-480) of 0.5 µg/mL (≈ 2.92 µM) and an MIC ([12]; Lachnospiraceae sp. HM-558) of 0.5 µg/mL (≈ 2.92 µM). For the same molecule, the MIC ([12]; Lachnospiraceae sp. HM-768) was 0.5 µg/mL (≈ 2.92 µM), the MIC ([12]; Lachnospiraceae sp. HM-868) was 16 µg/mL (≈ 93.5 µM) and the MIC ([12]; Peptostreptococcaceae sp. HM-766) was 0.5 µg/mL (≈ 2.92 µM). For the same molecule, the “susceptibility of Lachnospiraceae and related organisms (in words)” value ([12]; most of the members of this family) was “susceptible”, the MIC ([13]; BAA1805, Test 14, CD strain BAA1805 (BI/NAP1/027)) was 16 µg/mL and the MIC ([13]; BAA1805, Test 15, CD strain BAA1805 (BI/NAP1/027)) was 32 µg/mL. For the same molecule, the MIC ([13]; BAA1805, Test 17, CD strain BAA1805 (BI/NAP1/027)) was 32 µg/mL, the MIC ([13]; Test 8, CD strain NR32885) was 2 µg/mL and the MIC ([13]; Test 10, CD strain NR32885) was 1 µg/mL. It also gave an MIC ([13]; Test 12, CD strain NR32885) of 1 µg/mL, an MIC ([13]; Test 19, CD strain NR32888) of 2 µg/mL and an MIC ([13]; Test 21, CD strain NR32888) of 2 µg/mL. It also gave an FIC ([13]; Test 3, CD strain VPI 10463) of 0.5, an MIC combination ([13]; Test 3, CD strain VPI 10463) of 0.062 µg/mL and an FIC ([13]; Test 4, CD strain VPI 10463) of 0.5. It also gave an MIC combination ([13]; Test 4, CD strain VPI 10463) of 0.062 µg/mL, an MIC combination ([13]; Test 8, CD strain NR32885) of 0.25 µg/mL and an FIC ([13]; Test 10, CD strain NR32885) of 0.25. The MIC combination ([13]; Test 10, CD strain NR32885) was 0.25 µg/mL, the FIC ([13]; Test 12, CD strain NR32885) was 0.25 and the MIC combination ([13]; Test 12, CD strain NR32885) was 0.25 µg/mL. It also gave an FIC [13, 14] of 0.015, an MIC combination [13, 14] of 0.25 µg/mL and an MIC combination ([13]; Test 15, CD strain BAA1805 (BI/NAP1/027)) of 4 µg/mL. It also gave an MIC combination ([13]; Test 17, CD strain BAA1805 (BI/NAP1/027)) of 4 µg/mL, an FIC ([13]; Test 19, CD strain NR32888) of 0.062 and an FIC ([13]; Test 21, CD strain NR32888) of 0.25. It also gave an MIC combination ([13]; Test 21, CD strain NR32888) of 0.5 µg/mL.
